# Assay results as given in article PMC9715707, “Identification of a novel peptide ligand for the cancer-specific receptor mutation EGFRvIII using high-throughput sequencing of phage-selected peptides” (Scientific Reports, 2022).
# Entries after “also recorded” stand apart in the source; their conditions may differ. Where no end group is shown, it is not given here. The star is where a group is joined. FITC = O=C1OC2(c3ccc(O)cc3Oc3cc(O)ccc32)c2ccc(NC(=S)*)cc21; Ahx = NCCCCCC(=O)O
# B1: FITC-Ahx-FALGEA-CONH2 (peptide)
# peptide: {FITC-Ahx}-FALGEA-NH2
# SMILES: CC(C)C[C@H](NC(=O)[C@H](C)NC(=O)[C@H](Cc1ccccc1)NC(=O)CCCCCNC(=S)Nc1ccc2c(c1)C(=O)OC21c2ccc(O)cc2Oc2cc(O)ccc21)C(=O)NCC(=O)N[C@@H](CCC(=O)O)C(=O)N[C@@H](C)C(N)=O
# Experiments:
# CLTH/EGFR WT cells [1] = assay: Flow cytometry cellular binding of FITC-Ahx-peptides, EGFR WT cells; type: cell-based, human; details: 10 µM FITC-Ahx-peptide, 20 min at RT, 0.2% DMSO, MFI minus blank cells divided by spectrofluorometer correction factor
# Procedure: (§1) Flow cytometry analysis was also performed to quantitatively analyze the binding affinity of the synthetized peptides to the different cell types. Briefly, 293T, CLTH/EGFR WT and CLTH/EGFRvIII cells (100,000 cells, 500 µL) were plated in 24-well plates and incubated overnight at 37 °C in a humidified atmosphere containing 5% CO2 overnight. The next day, cells were treated with FITC-Ahx-peptides using a stock solution in pure DMSO at 5 mM to reach a final concentration of 1, 5 or 10 µM (final percentage of DMSO of 0.2%). Plates were incubated for 20 min at RT. Cells were detached from the plates by a PBS wash, transferred to FACS tubes and washed two times with 4 mL of PBS. Cells were stained with LIVE/DEAD™ Fixable Near-IR Dead Cell Stain Kit (Thermofisher) as a viability marker. Cells were analyzed by flow cytometry on a MACSQuant Analyser 16 (Miltenyi Biotec) using the MACS Quantify software to acquire and process the data. LIVE/DEAD™ Fixable dye was excited at 640 nm and fluorescence was collected with the 785/62 nm filter. FITC was excited at 488 nm and fluorescence was collected with the 525/50 nm filter. Viable cells were gated, FITC fluorescence intensity was recorded and the mean fluorescence intensity (MFI) was measured. MFI values were then normalized by subtracting MFI from blank cells and dividing by the correction factor determined using a spectrofluorometer.
# Since FITC fluorescence can be impacted by the nature of the amino acids in the peptide sequence and since the conjugation rate of FITC in the peptide synthesis can fluctuate, it was needed to measure a correction factor according to the fluorescence intensity of each peptide. As flow cytometry cannot analyze fluorescence of small molecules, a spectrofluorometer was used in similar conditions (excitation and emission) to the flow cytometry conditions. […] Fluorescence intensities at 525 nm of the FITC-Ahx-peptides in PBS were measured using a Varioskan plate reader (Thermo Scientific) and the SkanIt Software 5.0. […] Linear regressions were determined for each peptide. […]
# 293T cells [2] = assay: Flow cytometry cellular binding of FITC-Ahx-peptides, 293T cells; type: cell-based, human; details: 20 min at RT; for Normalized MFI at 10 µM, 293T: 293T cells (negative control), 10 µM FITC-Ahx-peptide, 0.2% DMSO, MFI minus blank cells divided by spectrofluorometer correction factor
# Procedure: as §1
# Since FITC fluorescence can be impacted by the nature of the amino acids in the peptide sequence and since the conjugation rate of FITC in the peptide synthesis can fluctuate, it was needed to measure a correction factor according to the fluorescence intensity of each peptide. As flow cytometry cannot analyze fluorescence of small molecules, a spectrofluorometer was used in similar conditions (excitation and emission) to the flow cytometry conditions. Experiments were performed by the flow cytometry core facility at Institut Mondor de Recherche Biomédical (IMRB U955, France). Fluorescence intensities at 525 nm of the FITC-Ahx-peptides in PBS were measured using a Varioskan plate reader (Thermo Scientific) and the SkanIt Software 5.0. Samples with concentrations between at 0.625, 1.25, 2.5, 5, 10 and 20 µM were prepared in triplicates using stock solutions of peptides in DMSO at 5 mM. Samples (100 µL) were analyzed in a 96-well plate using the following conditions: temperature of 25 °C, excitation wavelength at 490 nm, excitation bandwidth of 5 nm, emission wavelength at 525 nm, by step of 1 nm, measurement time 100 ms, and upper lens. Linear regressions were determined for each peptide. The correction factor was determined by dividing each slope by the arbitrary value 100 and was used to normalize the MFI obtained by flow cytometry.
# EGFR WT = details: prior art; cited from earlier work
# Excerpt: Two short peptides intended for EGFR targeting of tumor cells have been described in the prior art.
# CLTH/EGFRvIII cells [3] = assay: Flow cytometry binding of phage-displayed peptides, EGFRvIII cells; type: cell-based, human; details: phage-displayed peptide (M13), ~10^10 phages pre-absorbed on 293T cells, 1 h at 4 °C; anti-M13_biotin + anti-biotin_PE vs secondary-only
# Procedure: (§2) Prior to being tested with the selected phages or peptides, each cell line was incubated with different commercial antibodies to confirm their phenotype (Fig. S3). A monoclonal anti-EGFR WT antibody (Life Technologies) and an anti-EGFRvIII primary antibody (Millipore) were used in flow cytometry experiments to evaluate the expression of EGFR WT and EGFRvIII receptors on CLTH/EGFR WT cells and CLTH/EGFRvIII cells respectively. Anti-IgG1 conjugated to phycoerythrin (PE) (Miltenyi Biotec) was used as a secondary antibody to read the fluorescence of PE. 293T cells were tested as a negative control. A phage-free control experiment was also performed on each cell type prior to testing phages. Anti-M13 conjugated to biotin (Abcam) was used as a primary antibody, anti-mouse IgG3 kappa monoclonal conjugated to biotin (Abcam) as isotype control and anti-biotin conjugated to PE (Miltenyi Biotec) as secondary antibody. A list of the antibodies is available in Table S3.
# Binding of the selected phages on 293T human embryo kidney, CLTH/EGFR WT and CLTH/EGFRvIII cells was characterized by flow cytometry. Approximately 1 × 10^6 293T cells (expressing endogenous levels of EGFR WT) were collected, washed with cold PBS and blocked with 2%w/v milk-PBS (MPBS), rotating for 30 min at 4 °C. […] The blocked phages were then added to the blocked cells and incubated rotating for 1 h at 4 °C. After centrifugation at 500g for 3 min, the supernatant containing non-bound phages was collected. This step allowed the removal of phages that interacted with this EGFR negative cell line (i.e. not an EGFR-specific binding). The supernatant was then used to resuspend transfected cells washed beforehand (CLTH/EGFR WT expressing EGFR WT and CLTH/EGFRvIII expressing EGFRvIII). Treated cells were incubated for 1 h at 4 °C, collected by centrifugation and washed two times with PBS at pH 7.4. Cells were stained with Viobility™ 405/520 fixable dye (Miltenyi Biotec) as a viability marker. Cells were analyzed by flow cytometry on a MACSQuant Analyser 16 (Miltenyi Biotec) using the MACS Quantify software to acquire and process the data. Viobility™ 405/520 fixable dye was excited at 405 nm and fluorescence was collected with the 525/50 nm filter. PE was excited at 488 nm and fluorescence was collected with the 579/34 nm filter. Viable cells were gated, and PE fluorescence intensity was recorded.
# CLTH/EGFRvIII cells [4] = assay: Flow cytometry cellular binding of FITC-Ahx-peptides, EGFRvIII cells; type: cell-based, human; details: for Normalized MFI at 10 µM, vIII: EGFRvIII cells, 10 µM FITC-Ahx-peptide, 0.2% DMSO, MFI minus blank cells divided by spectrofluorometer correction factor; for Normalized MFI ratio vIII/WT from 3 different concentrations, Mean: EGFRvIII over EGFR WT cell line, mean of ratios at 1, 5 and 10 µM
# Excerpt: Since FITC fluorescence can be impacted by the nature of the amino acids in the peptide sequence and since the conjugation rate of FITC in the peptide synthesis can fluctuate, it was needed to measure a correction factor according to the fluorescence intensity of each peptide. As flow cytometry cannot analyze fluorescence of small molecules, a spectrofluorometer was used in similar conditions (excitation and emission) to the flow cytometry conditions. […] Fluorescence intensities at 525 nm of the FITC-Ahx-peptides in PBS were measured using a Varioskan plate reader (Thermo Scientific) and the SkanIt Software 5.0. Samples with concentrations between at 0.625, 1.25, 2.5, 5, 10 and 20 µM were prepared in triplicates using stock solutions of peptides in DMSO at 5 mM. Samples (100 µL) were analyzed in a 96-well plate using the following conditions: temperature of 25 °C, excitation wavelength at 490 nm, excitation bandwidth of 5 nm, emission wavelength at 525 nm, by step of 1 nm, measurement time 100 ms, and upper lens. Linear regressions were determined for each peptide. The correction factor was determined by dividing each slope by the arbitrary value 100 and was used to normalize the MFI obtained by flow cytometry.
# EGFRvIII = biological target: T1, EGFRvIII (Homo sapiens, UniProt P00533, DELINS30-297G); assay: Microscale thermophoresis, EGFRvIII in solution; type: binding; details: read-out: Kd for EGFRvIII (MST, estimated)
# T1 construct: using purified and active extracellular domain of the EGFRvIII protein; purchased Sino Biological 29662-H08B
# CLTH/EGFR WT cells [5] = assay: Flow cytometry binding of phage-displayed peptides, EGFR WT cells; type: cell-based, human; details: phage-displayed peptide (M13), 1 h at 4 °C
# Procedure: as §2, with “Anti-M13 conjugated to biotin (Abcam) was used as a primary antibody, anti-mouse IgG3 kappa monoclonal conjugated to biotin (Abcam) as isotype control and anti-biotin conjugated to PE (Miltenyi Biotec) as secondary antibody. A list of the antibodies is available in Table S3.” left out
# (§3) Binding of the selected phages on 293T human embryo kidney, CLTH/EGFR WT and CLTH/EGFRvIII cells was characterized by flow cytometry. […] Cells were analyzed by flow cytometry on a MACSQuant Analyser 16 (Miltenyi Biotec) using the MACS Quantify software to acquire and process the data. Viobility™ 405/520 fixable dye was excited at 405 nm and fluorescence was collected with the 525/50 nm filter. PE was excited at 488 nm and fluorescence was collected with the 579/34 nm filter. Viable cells were gated, and PE fluorescence intensity was recorded.
# 293T cells [6] = assay: Flow cytometry binding of phage-displayed peptides, 293T cells; type: cell-based, human; details: phage-displayed peptide (M13), 1 h at 4 °C
# Procedure: as §2, with “Anti-M13 conjugated to biotin (Abcam) was used as a primary antibody, anti-mouse IgG3 kappa monoclonal conjugated to biotin (Abcam) as isotype control and anti-biotin conjugated to PE (Miltenyi Biotec) as secondary antibody. A list of the antibodies is available in Table S3.” left out
# as §3
# [7] = biological target: epidermal growth factor tyrosine kinase receptor mutation variant III (EGFRvIII) on CLTH/EGFRvIII cells (human) (UniProt P00533); assay: flow cytometry on cells; FITC-Ahx-peptides at 1, 5 or 10 µM (0.2% DMSO) on plated 293T, CLTH/EGFR WT and CLTH/EGFRvIII cells, 20 min at RT; FITC MFI of viable cells, normalised by blank cells and a spectrofluorometer correction factor
molecule,measurement,setting,value
FITC-Ahx-VLGREEWSTSYW-CONH2,"Normalized MFI at 10 µM, WT",CLTH/EGFR WT cells [1],4.0
same,"Normalized MFI at 10 µM, 293T",293T cells [2],5.1
YHWYGYTPENVI,"reported binding to EGFR WT, qualitative (YHWYGYTPENVI)",EGFR WT,proven to bind to EGFR WT
NPIVRSAEDGQL [top peptide selected from the NGS data analysis],specific binding of phage-displayed peptide to EGFRvIII cells (PE fluorescence),CLTH/EGFRvIII cells [3],did not show a specific binding
"{FITC-Ahx}-FALGEA-NH2 (SMILES CC(C)C[C@H](NC(=O)[C@H](C)NC(=O)[C@H](Cc1ccccc1)NC(=O)CCCCCNC(=S)Nc1ccc2c(c1)C(=O)OC21c2ccc(O)cc2Oc2cc(O)ccc21)C(=O)NCC(=O)N[C@@H](CCC(=O)O)C(=O)N[C@@H](C)C(N)=O) [FALGEA control peptide with FITC-Ahx tag at the N-terminus, reference compound]","Normalized MFI at 10 µM, vIII",CLTH/EGFRvIII cells [4]; 20 min at RT,1.8
same,"Normalized MFI ratio vIII/WT from 3 different concentrations, Mean",CLTH/EGFRvIII cells [4],2.50
same,"Normalized MFI at 10 µM, WT",CLTH/EGFR WT cells [1],0.7
same,"Normalized MFI at 10 µM, 293T",293T cells [2],0.9
VLGREEWSTSYW [novel 12-mer peptide ligand of EGFRvIII selected by phage display],specific binding of phage-displayed peptide to EGFRvIII cells (PE fluorescence),CLTH/EGFRvIII cells [3],appeared to show specific binding to the EGFRvIII cells compared to the EGFR WT and the parental cell
same,"cellular binding to EGFRvIII cells, qualitative","CLTH/EGFRvIII cells [4]; FITC-Ahx-peptide, 20 min at RT, flow cytometry",A shift of fluorescence was observed for the VLGREEWSTSYW peptide on EGFRvIII compared to 293T and EGFR WT cell lines; also recorded: much higher for VLGREEWSTSYW compared to the FALGEA control; also recorded: binds to EGFRvIII cells with high efficiency; also recorded: greater affinity in cell surface binding experiments; also recorded: weaker signal with the free C-terminal FITC labeled peptide compared to the phage displayed format of the same peptide
same,"specificity for EGFRvIII cells versus EGFR WT cells, qualitative","CLTH/EGFRvIII cells [4]; FITC-Ahx-peptide, flow cytometry, MFI ratio vIII/WT at 1, 5, 10 µM",shows the specificity to EGFRvIII versus EGFR WT for VLGREEWSTSYW compared to the control peptide YHWYGYTPENVI; also recorded: good specificity compared to EGFR WT cells; also recorded: better selectivity to EGFRvIII cells than to EGFR WT cells compared to FALGEA
same,"non-specific interactions (293T cell binding), qualitative","293T cells [2]; FITC-Ahx-peptide, flow cytometry",minimized for VLGREEWSTSYW compared to the YHWYGYTPENVI control; also recorded: less nonspecific interaction (293T cells); also recorded: significantly less nonspecific cellular binding
FALGEA-NH2 [FALGEA],Kd,EGFRvIII,3.7 µM
NESGITRIALQD [top peptide selected from the NGS data analysis],specific binding of phage-displayed peptide to EGFRvIII cells (PE fluorescence),CLTH/EGFRvIII cells [3],did not show a specific binding
VLGREEWSTSYW-M13,specific binding of phage-displayed peptide to EGFRvIII cells (PE fluorescence),CLTH/EGFRvIII cells [3],showed a specific binding to EGFRvIII
same,"difference in fluorescence intensity, anti-M13 vs secondary-only antibody, EGFR WT cells",CLTH/EGFR WT cells [5],no significant difference in these fluorescence intensities
same,"difference in fluorescence intensity, anti-M13 vs secondary-only antibody, 293T cells",293T cells [6],no significant difference in these fluorescence intensities
{FITC-Ahx}-YHWYGYTPENVI-NH2 (SMILES CC[C@H](C)[C@H](NC(=O)[C@@H](NC(=O)[C@H](CC(N)=O)NC(=O)[C@H](CCC(=O)O)NC(=O)[C@@H]1CCCN1C(=O)[C@@H](NC(=O)[C@H](Cc1ccc(O)cc1)NC(=O)CNC(=O)[C@H](Cc1ccc(O)cc1)NC(=O)[C@H](Cc1c[nH]c2ccccc12)NC(=O)[C@H](Cc1c[nH]cn1)NC(=O)[C@H](Cc1ccc(O)cc1)NC(=O)CCCCCNC(=S)Nc1ccc2c(c1)C(=O)OC21c2ccc(O)cc2Oc2cc(O)ccc21)[C@@H](C)O)C(C)C)C(N)=O) [reference compound],"Normalized MFI at 10 µM, vIII",CLTH/EGFRvIII cells [4]; 20 min at RT,9.7
same,"Normalized MFI ratio vIII/WT from 3 different concentrations, Mean",CLTH/EGFRvIII cells [4],1.80
same,"Normalized MFI at 10 µM, WT",CLTH/EGFR WT cells [1],4.5
same,"Normalized MFI at 10 µM, 293T",293T cells [2],7.6
B1,normalized MFI at 10 µM,[7],1.8
same,normalized MFI ratio vIII/WT from 3 different concentrations (mean),[7],2.5
